The values below come from ChEMBL document CHEMBL4680272 (Eur J Med Chem, 2020).

Data set [1] is described as follows: AUC in Sprague-Dawley rat at 10 mg/kg, po measured for 24 hrs by LC-MS/MS analysis. The conditions noted are these: in vivo. On the set-up: time 24 hrs, dose 10 mg/kg. In kind it is ADME, organism-based.
Data set [2] is described as follows: Inhibition of Influenza A virus (A/California/04/2009 (H1N1)) Neuraminidase using MUNANA as substrate preincubated for 5 to 15 mins followed by substrate addition and measured after 30 mins by fluorescence spectrophotometric method.
Data set [3] in a line: Bioavailability in Sprague-Dawley rat at 10 mg/kg, iv measured for 24 hrs by LC-MS/MS analysis. It counts as ADME, organism-based. The conditions noted are these: in vivo.
Data set [4] in a line: Cmax in Sprague-Dawley rat at 10 mg/kg, po measured for 24 hrs by LC-MS/MS analysis. In kind it is ADME, organism-based. More on the design: route oral, dose 10 mg/kg, time 24 hrs. The conditions noted are these: in vivo.
Data set [5] is described as follows: AUC in Sprague-Dawley rat at 10 mg/kg, iv measured for 24 hrs by LC-MS/MS analysis. On the set-up: dose 10 mg/kg, time 24 hrs. The conditions noted are these: in vivo. In kind it is ADME, organism-based.
Data set [6] can be described thus: Inhibition of Influenza A virus (A/Babol/36/2005 (H3N2)) Neuraminidase using MUNANA as substrate preincubated for 5 to 15 mins followed by substrate addition and measured after 30 mins by fluorescence spectrophotometric method.
The nature of data set [7]: Inhibition of Influenza A virus (A/Anhui/1/2005(H5N1) Neuraminidase using MUNANA as substrate preincubated for 5 to 15 mins followed by substrate addition and measured after 30 mins by fluorescence spectrophotometric method.
A short description of data set [8]: Tmax in Sprague-Dawley rat at 10 mg/kg, po by LC-MS/MS analysis. The conditions noted are these: in vivo. In kind it is ADME, organism-based.
The next data set in a line: in vivo. The settings on record: Sprague-Dawley, rat, iv, 10 mg/kg.
In data set [9] the test system is Influenza A virus (A/Anhui/1/2005(H5N1)). Briefly: Inhibition of Influenza A virus (A/Anhui/1/2005(H5N1) Neuraminidase using MUNANA as substrate at 100 uM preincubated for 5 to 15 mins followed by substrate addition and measured after 30 mins by fluorescence spectrophotometric method. The conditions noted are these: time 35-45 min.
For data set [10] the test system is unchanged. The data set is described as follows: Inhibition of Influenza A virus (A/Anhui/1/2005(H5N1) Neuraminidase using MUNANA as substrate at 10 uM preincubated for 5 to 15 mins followed by substrate addition and measured after 30 mins by fluorescence spectrophotometric method. The conditions noted are these: time 35-45 min.
Data set [11] is described as follows: in vitro. The conditions noted are these: human, liver microsomes.
A short description of data set [12]: in vitro. The settings on record: mouse, liver microsomes.
A short description of data set [13]: in vitro. The conditions noted are these: rat, liver microsomes.
The nature of data set [14]: Oral bioavailability in ferret. It counts as ADME, organism-based, Mustela putorius furo. The settings on record: in vivo.
Data set [15] can be described thus: Tmax in Sprague-Dawley rat at 50 mg/kg, po by LC-MS/MS analysis. In kind it is ADME, organism-based. The settings on record: in vivo.
Data set [16] is described as follows: in vitro. The conditions noted are these: human, plasma.
Data set [17] in a line: Cmax in Sprague-Dawley rat at 50 mg/kg, po measured for 24 hrs by LC-MS/MS analysis. It counts as ADME, organism-based. On the set-up: route oral, dose 50 mg/kg, time 24 hrs. The conditions noted are these: in vivo.
For data set [18] the following is noted: human, plasma, 2 h.
A short description of data set [19]: in vitro. The settings on record: mouse, liver microsomes. The source holds these as a separate data set.
The nature of data set [20]: in vitro. The conditions noted are these: human, liver microsomes. The source holds these as a separate data set.
Data set [21] is described as follows: Oral bioavailability in Sprague-Dawley rat at 50 mg/kg measured for 24 hrs by LC-MS/MS analysis. In kind it is ADME, organism-based. The settings on record: in vivo.
The conditions of data set [22]: human, plasma.
Data set [23] in a line: AUC in Sprague-Dawley rat at 50 mg/kg, po measured for 24 hrs by LC-MS/MS analysis. It counts as ADME, organism-based. More on the design: time 24 hrs, dose 50 mg/kg. The settings on record: in vivo.
Data set [24] is described as follows: in vitro. The conditions noted are these: rat, liver microsomes. The source holds these as a separate data set.
The nature of data set [25]: Half life in Sprague-Dawley rat at 50 mg/kg, po measured for 24 hrs by LC-MS/MS analysis. In kind it is ADME, organism-based. The conditions noted are these: in vivo.
The nature of data set [26]: in vitro. The settings on record: human, plasma. The source holds these as a separate data set.
Data set [27] is described as follows: in vitro. The settings on record: human, plasma. The source holds these as a separate data set.
The nature of data set [28]: Oral bioavailability in rat. It counts as ADME, organism-based. The settings on record: in vivo.

Active and inactive are the calls of the source. The rule behind the calls is not given here.

As for `CCC(CC)O[C@@H]1C=C(C(=O)O)C[C@H](N)[C@H]1NC(C)=O` [OSELTAMIVIR CARBOXYLATE], the AUC at 24 h in data set [1] turned out to be 300 ng·h/mL; in [5] it was 8400 ng·h/mL. For the same molecule, the IC50 in [2] is 2500 nM; in data set [6] it was 41.7 nM; in data set [7], 210 nM. Also, in [3], the F is given as 100%. In data set [4], this molecule yielded a Cmax of 30 ng/mL. Further, in data set [8], the Tmax is 4 h. Besides, in “in vivo”, the half-life at 24 h was found to be 1.6 h.

Turning to `CCC(CC)O[C@@H]1C=C(C(=O)O)C[C@H](NC(=O)Nc2cccc([N+](=O)[O-])c2)[C@H]1NC(C)=O`, the inhibition stood at 36.9% in [9] and 6.5% in data set [10].

`CCC(CC)O[C@@H]1C=C(C(=O)O)C[C@H](NC(=O)NCc2ccc(OC)cc2)[C@H]1NC(C)=O` came in with an inhibition in data set [9] of 36.5%. For the same molecule, in data set [10], the inhibition result is “inactive”.

For `CCC(CC)O[C@@H]1C=C(C(=O)O)C[C@H](NC(=S)N(C(C)C)C(C)C)[C@H]1NC(C)=O`, the results for the inhibition in data set [9] and in data set [10] were 80% and 20%, respectively.

Regarding `O=C(O)Cc1ccccc1Nc1c(Cl)cccc1Cl` [DICLOFENAC], the figures for the half-life at 1 h in “in vitro [11]”, in “in vitro [12]” and in “in vitro [13]” were 0.195 h, 0.735 h and 0.2 h, respectively.

`CCC(CC)O[C@@H]1C=C(C(=O)O)C[C@H](NC(=O)Nc2cccc(Br)c2)[C@H]1NC(C)=O`: the IC50 in data set [7] (read-out: IC50) is 16900 nM.

The molecule `CCC(CC)O[C@@H]1C=C(C(=O)O)C[C@H](NC(=S)NCc2cccc(F)c2)[C@H]1NC(C)=O` gave an inhibition in data set [9] of 28.1%. The inhibition entry in data set [10] is “inactive”.

On to `CCC(CC)O[C@@H]1C=C(C(=O)O)C[C@H](NC(=O)N(C)C)[C@H]1NC(C)=O`, for which the IC50 in data set [7] (read-out: IC50) worked out at 4830 nM.

In the case of `CCC(CC)[C@H](NC(C)=O)[C@@H]1[C@H](O)[C@@H](C(=O)O)C[C@H]1NC(=N)N` [PERAMIVIR ANHYDROUS], the bioavailability in [14] worked out at 2.5%.

In the case of `CCC(CC)O[C@@H]1C=C(C(=O)O)C[C@H](NC(=O)Nc2ccccc2)[C@H]1NC(C)=O`, the results for the inhibition in data set [9] and in [10] were 32.6% and 17.6%, respectively.

As for `CCC(CC)O[C@@H]1C=C(C(=O)O)C[C@H](NC(=O)Nc2cc(OC)c(OC)c(OC)c2)[C@H]1NC(C)=O`, the inhibition in [9] stood at 16.4%. In addition, the inhibition result in data set [10] is “inactive”.

`CCC(CC)O[C@@H]1C=C(C(=O)O)C[C@H](NC(=S)NCc2ccc(F)cc2)[C@H]1NC(C)=O`: the inhibition in data set [9] was determined as 21%. Moreover, the inhibition result in [10] is “inactive”.

In the case of `CCC(CC)O[C@@H]1C=C(C(=O)O)C[C@H](NC(=S)NC2CC2)[C@H]1NC(C)=O`, the inhibition in [9] was 29.2%; in data set [10], 8.7%.

Turning to `CCC(CC)O[C@@H]1C=C(C(=O)O)C[C@H](NC(=O)N(C(C)C)C(C)C)[C@H]1NC(C)=O`, the inhibition in data set [9] amounted to 63.1%; in [10], 32.3%.

With `CCC(CC)O[C@@H]1C=C(C(=O)O)C[C@H](NC(=S)Nc2ccc(C)c(C)c2)[C@H]1NC(C)=O`, the inhibition in data set [9] is 52.4%; in data set [10] it was 15.3%.

Turning to `CCC(CC)O[C@@H]1C=C(C(=O)O)C[C@H](NC(=O)NCCc2ccccc2)[C@H]1NC(C)=O`, the inhibition in [9] was determined as 17.7%. Besides, in data set [10], the inhibition result is “inactive”.

Regarding `CCC(CC)O[C@@H]1C=C(C(=O)O)C[C@H](NC(N)=O)[C@H]1NC(C)=O`, the half-life at 1 h in “in vitro [11]”, in the data set “in vitro [12]” and in the data set “in vitro [13]” was above 2.42 h throughout. For the same molecule, the IC50 in data set [2] worked out at 8700 nM; in data set [6], 169 nM; in data set [7] (read-out: IC50) it was 254 nM. The Tmax in data set [15] was 0.75 h. Moreover, the fraction remaining at 1 h amounted to 102% in the data set “in vitro [16]”, 100% in the data set “in vitro [19]”, 99.1% in the data set “in vitro [20]” and 85.5% in “in vitro [24]”. In data set [3], this molecule yielded an F of 100%. In [17], this molecule yielded a Cmax of 3670 ng/mL. Also, the AUC at 24 h was 23200 ng·h/mL in data set [5] and 10300 ng·h/mL in data set [23]. Also, the figures for the Stabilty in data set [18] and in data set [22] were 122.6% and 100%, respectively. In [21], this molecule gave a bioavailability of 8.8%. In addition, in data set [25], the half-life came to 9.95 h. In the data set “in vivo”, this molecule had a half-life at 24 h of 2.07 h. Besides, in the data set “in vitro [26]”, the share remaining at 10 min was 101%. For the same molecule, in the data set “in vitro [27]”, the share remaining at 0.5 h is 99.1%.

Consider `CCC(CC)O[C@@H]1C=C(C(=O)O)C[C@H](NC(N)=S)[C@H]1NC(C)=O`, for which the inhibition in data set [9] was found to be 51.3%; in [10], 16.9%.

On to `CCC(CC)O[C@@H]1C=C(C(=O)O)C[C@H](NC(=S)Nc2ccccc2)[C@H]1NC(C)=O`, for which the inhibition in [9] turned out to be 47.1%; in [10], 16.6%.

With `CC(C)[N+](C)(CCOC(=O)C1c2ccccc2Oc2ccccc21)C(C)C.[Br-]` [PROPANTHELINE BROMIDE], in data set [22], the Stabilty is reported as 100%. Moreover, the share remaining at 10 min in “in vitro [26]” was 68.2%.

For the molecule `CCC(CC)O[C@@H]1C=C(C(=O)O)C[C@H](NC(=S)NCc2ccc(Br)cc2)[C@H]1NC(C)=O`, the inhibition turned out to be 59.6% in [9] and 17% in [10].

Regarding `CCC(CC)O[C@@H]1C=C(C(=O)O)C[C@H](NC(=O)NCc2ccc(C#N)cc2)[C@H]1NC(C)=O`, the inhibition in data set [9] turned out to be 32.5%. Also, the inhibition entry in data set [10] was “inactive”.

With `CCC(CC)O[C@@H]1C=C(C(=O)O)C[C@H](NC(=O)NC(C)C)[C@H]1NC(C)=O`, the values for the inhibition in [9] and in data set [10] were 32.3% and 8.3%, respectively.

Consider `CCC(CC)O[C@@H]1C=C(C(=O)O)C[C@H](NC(=O)NCc2ccccc2)[C@H]1NC(C)=O`, for which the figures for the inhibition in [9] and in data set [10] were 35.1% and 6.8%, respectively.

Turning to `CCC(CC)O[C@@H]1C=C(C(=O)O)C[C@H](NC(=N)N)[C@H]1NC(C)=O`, the bioavailability in [28] was found to be 2.1%.

As for `CCC(CC)O[C@@H]1C=C(C(=O)O)C[C@H](NC(=O)N2CCCCC2)[C@H]1NC(C)=O`, the values for the inhibition in data set [9] and in data set [10] were 56.4% and 25.6%, respectively.

Regarding `CCC(CC)O[C@@H]1C=C(C(=O)O)C[C@H](NC(=S)NC)[C@H]1NC(C)=O`, the IC50 in data set [7] (read-out: IC50) is 18600 nM.

`CO[C@@H]([C@@H]1OC(C(=O)O)=C[C@H](NC(=N)N)[C@H]1NC(C)=O)[C@H](O)CO`: the bioavailability in data set [28] was determined as 3.5%.
